Reference: patent US11435353B2, “Method of evaluating drug resistance and treatment effect” (priority 2018, dated 2022)
“Also recorded” adds a separate entry of the source. Where two headings read alike, the source gives them in different places.

What was measured:
[1] = test system: ER+ breast cancer cell (ZR-75-1); test: MTT assay of cytotoxic effects in ZR-75-1 cells; details: short-term treatment, FIG. 5C/5D
Description: (§6) Cell viability was analyzed by MTT (3, [4,5-dimethylthiazol-2-yl-]diphenyltetrazolium bromide, 5 mg/ml). Cells were seeding in 96-well plates and incubated overnight, and then changed into the fresh medium containing indicated concentrations of tamoxifen for 72 h. 50 μl of MTT was added to each well and incubated for 2 h, and the purple formazan crystals were dissolved in DMSO. The absorbance was measured by a microplate reader at a wavelength of 570 nm.

[2] = test system: TRBP mRNA; test: qRT-PCR of TRBP mRNA level; format: cell-based; details: FIG. 7A
Description: (§1) Then, in order to investigate changes in TRBP protein stability, the […] of TRBP was analyzed by further treating the tamoxifen-resistant cell (MCF-7/TR) and the tamoxifen-resistant cell (MCF-7/TR1) with 50 μg/ml cycloheximide (CHX) to block de novo protein synthesis, followed by harvesting the tamoxifen-resistant cell (MCF-7/TR) and the tamoxifen-resistant cell (MCF-7/TR1) at an indicated time point to analyze the expression of TRBP in the tamoxifen-resistant cell (MCF-7/TR) and the tamoxifen-resistant cell through another western blot, wherein the degradation rates were plotted for the average±SEM of at least three independent experiments and analyzed by two-way ANOVA (*P≤0.05 and **P≤0.01).
(§2) Total RNA was isolated by using Trizol reagent according to the manufacturer's instructions. 200 ng of RNA was reverse transcribed to complementary DNA (cDNA) by using a reverse transcriptase enzyme, a random primer, dNTPs and an RNase inhibitor. Real-time PCR was performed by Applied Biosystem Step One Real-time PCR system (Applied Biosystems) according to manufacturer's protocols. Samples run in three independent experiments and GAPDH or α-tubulin were used as an internal control to normalize the target genes.

[3] = test system: SOX2 protein; test: SOX2 protein stability; format: cell-based
[4] = test system: SOX2 protein; test: Western blot of SOX2 protein expression; format: cell-based
Description: In order to identify the downstream modulator of TRBP, the tamoxifen-sensitive cells (MCF-7) were treated with 2 μM tamoxifen for 48 hours, and then RNA of the tamoxifen-sensitive cell (MCF-7) was isolated to analyze the mRNA expression of stem cell markers by using a reverse-transcription PCR (qRT-PCR), with the aforementioned experiment being repeated at least three times, and with ATP5E being used as a positive control for tamoxifen treatment (*P<0.05) by t-test. Then, the tamoxifen-sensitive cells (MCF-7) were further collected to analyze protein expression by using a western blot. Accordingly, we determined the expression of several key factors that have been reported to modulate self-renewal and drug resistance of cancer cells, including SOX2, Nanog, OCT4, Lin28A, CCND1.
(§3) On the other hands, similar experiments above are also performed to identify the upstream modulator of TRBP.
(§4) Whole cell extracts were lysed in RIPA buffer and collected to fractionate by SDSPAGE, and then transferred onto PVDF membranes according to the manufacture's protocols (Bio-Rad). After blocking with 5% nonfat milk in TBST for 60 min, membranes were washed and incubated with primary antibodies at 4° C. overnight. Membranes were washed three times for 10 min and incubated with secondary antibodies for 60 min. Protein expressions were visualized by ECL system according to the manufacture's protocols.

[5] = test system: tamoxifen-resistant cell (MCF-7/TR)
Description: as §6

[6] = test system: TRBP; test: Western blot of TRBP expression after tamoxifen or 4OHT treatment; format: cell-based; details: 48 hours
Description: as §3, §4

[7] = test system: SOX2 mRNA; test: qRT-PCR of stem cell marker mRNA (SOX2); format: cell-based; details: MCF-7 cells, 2 μM, 48 hours, FIG. 8A/8F
Description: (§5) Then, the tamoxifen-sensitive cells (MCF-7) were further collected to analyze protein expression by using a western blot.
After that, RNA was isolated from the tamoxifen-sensitive cell (MCF-7) to analyze the mRNA expression of SOX2 by using a reverse-transcription PCR (qRT-PCR).
as §2

[8] = test system: p-AKT; test: Western blot of p-AKT; format: cell-based; details: left of FIG. 8K
Description: as §3, §4

[9] = test system: ER+ breast cancer cell (ZR-75-1)
Description: as §6

[10] = test system: TRBP protein; test: Cycloheximide chase, TRBP protein stability by western blot; format: cell-based
Description: as §1, §4

[11] = test system: cyclin D1; test: qRT-PCR and western blot of cyclin D1; format: cell-based; details: MCF-7 cells, 2 μM, 48 hours, FIG. 8A/8B
Description: as §5, §4, §2

[12] = test system: Merlin; test: Western blot of Merlin expression after tamoxifen treatment; format: cell-based; details: increasing concentrations, 48 hours
Description: as §4

| Compound | cytotoxic effects (MTT) [1] | TRBP mRNA level ([2]; MCF-7/TR1 cells) | TRBP mRNA level ([2]; MCF-7/TR cells pretreated with 2 μM tamoxifen for 48 hours) | SOX2 protein degradation ([3]; tamoxifen-treated vs untreated MCF-7, FIG. 8G) | SOX2 protein degradation ([3]; tamoxifen-treated vs untreated MCF-7/TR, FIG. 8H) | expression of SOX2 protein ([4]; MCF-7 cells, 2 μM, 48 hours, FIG. 8B) | SOX2 level after tamoxifen treatment ([4]; right of FIG. 8K) | cytotoxic effects (MTT) [5] | TRBP expression ([6]; ER- Hs578T cells, FIG. 5E) | TRBP expression ([6]; ER- MDA-MB-231 cells, FIG. 5E) | TRBP expression ([6]; ER- SKBR3 cells, FIG. 5E) | TRBP expression ([6]; MCF-7/TR cells, increasing concentrations, FIG. 5A/5B) | expression of SOX2 mRNA [7] | p-AKT level after tamoxifen treatment [8] | cytotoxic effects (MTT) [9] | degradation of TRBP protein ([10]; tamoxifen-treated vs untreated MCF-7, 50 μg/ml cycloheximide, FIG. 7B) | degradation of TRBP protein ([10]; tamoxifen-treated vs untreated MCF-7/TR1, 50 μg/ml cycloheximide, FIG. 7C) | cyclin D1 expression [11] | expression of Merlin ([12]; MCF-7 cells, FIG. 7D) | expression of Merlin ([12]; ZR-75-1 cells, FIG. 7E) |
| --- | --- | --- | --- | --- | --- | --- | --- | --- | --- | --- | --- | --- | --- | --- | --- | --- | --- | --- | --- | --- |
| 4-hydroxytamoxifen | noncytotoxic | – | – | – | – | – | – | – | – | – | – | – | – | – | – | – | – | – | – | – |
| CC/C(=C(\c1ccccc1)c1ccc(OCCN(C)C)cc1)c1ccccc1 [tamoxifen] | – | not significantly changed | not significantly changed | degraded more slowly | degraded more slowly | upregulated expression of SOX2 protein | elevated-SOX2 level | without inducing any significant cytotoxic effects | no significant induction of TRBP | no significant induction of TRBP | no significant induction of TRBP | induced the TRBP expression in a dose-dependent manner | upregulated; also recorded: enhanced SOX2 expression | elevated-AKT level | noncytotoxic | significant prolonged degradation of TRBP protein | significant prolonged degradation of TRBP protein | reduction of cyclin D1 | suppressed in a dose-dependent manner | suppressed in a dose-dependent manner |
